We go through four molecules from patent US20090048229A1, “Methods for promoting wakefulness” (priority 2007, published 2009).

The nature of series [1]: Dose range for cholinergic effects / max tolerated dose. Format: in vivo, rat. Conditions: s.c., rats. How it is done: (§1) If less soluble, the maximum injection volume was 5 mL/kg.
(§2) Baseline temperatures were taken just before injection.

For series [2], the target named is BuChE (Homo sapiens, UniProt P06276). As to the kind of experiment: In vitro screening assay, BuChE inhibition. Format: biochemical. The text has this: An in vitro screening assay with various conjugates was completed according to the methods described in Ellman G L et al., Biochem Pharmacol., 7:88-95 (1961) and in Nadarajah B, J. Anal. Toxicol., 16:192-193 (1992), both of which are herein incorporated by reference in their entireties. The assay method was completed according to the following: […]
BuChE, sequence (P06276 29-602): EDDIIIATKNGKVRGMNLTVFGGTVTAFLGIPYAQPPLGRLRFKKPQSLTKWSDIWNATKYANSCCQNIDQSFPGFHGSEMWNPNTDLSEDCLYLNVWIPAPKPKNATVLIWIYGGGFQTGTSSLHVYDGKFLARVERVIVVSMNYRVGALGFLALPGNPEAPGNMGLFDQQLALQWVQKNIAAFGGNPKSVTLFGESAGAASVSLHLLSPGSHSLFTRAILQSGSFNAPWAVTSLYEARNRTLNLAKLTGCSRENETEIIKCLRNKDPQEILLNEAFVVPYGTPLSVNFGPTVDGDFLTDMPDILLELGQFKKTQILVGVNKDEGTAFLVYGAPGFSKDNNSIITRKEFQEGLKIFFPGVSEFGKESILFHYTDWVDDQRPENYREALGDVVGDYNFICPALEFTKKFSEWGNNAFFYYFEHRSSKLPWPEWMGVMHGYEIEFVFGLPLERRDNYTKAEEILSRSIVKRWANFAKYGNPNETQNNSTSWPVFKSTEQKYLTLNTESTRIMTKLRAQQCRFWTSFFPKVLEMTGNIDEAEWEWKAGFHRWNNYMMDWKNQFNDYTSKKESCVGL

The test system of series [3] is male Wistar rats. As to the kind of experiment: Wake promotion (EEG/EMG sleep-wake, locomotor activity, body temperature). The settings on record: for rebound hypersomnolence: FIG. 3; for duration of wakefulness: administered 5 hours after lights on (CT-5), FIG. 2; for effect on body temperature: FIG. 4; for locomotor hyperactivity / stimulant activity: FIG. 5. Format: in vivo, rat. How it is done: Test compounds in various dose ranges or vehicle were administered to male Wistar rats 5 hours after lights on (CT-5). EEG, EMG, locomotor activity, drink- and food-related activity, and body temperature were concurrently monitored for 30 hr before and after treatment from rats living in separate isolated recording chambers. Sleep-wake discriminations were carried out using SCORE2004™, proprietary real-time hardware and software technology of Hypnion, Inc. (Lexington, Mass.). Comparisons were made between the reference compounds: d-amphetamine, rivastigmine, modafinil, and the following carbamoyl ester test compounds: […]

For series [4], the target named is butylryl cholinesterase (Homo sapiens, UniProt P06276). As to the kind of experiment: Inhibition of butyrylcholinesterase. Format: biochemical. Conditions: read-out: Inhibition of BuChE (%) 10 μM. Here is the method: The inhibition of butylryl cholinesterase was determined using methods known in the art e.g., Alcala Molel M. et al. (2003) Characterization of the anticholinesterase activity of two new tacrin-huperzine A hybrids. Neuropharmacology, 44 (6), 749-755.
butylryl cholinesterase, sequence (P06276 29-602): as above

The test system of series [5] is male CD IGS (Sprague Dawley derived) rats. As to the kind of experiment: Induction of hypothermia after subcutaneous administration. Format: in vivo, rat. The settings on record: for Induction of hypothermia MED (mg/kg s.c.): hypothermia = fall in temperature of >0.5° C.; for fall in body temperature: subcutaneous administration.
Excerpt: Cholinergic agonists cause hypothermia through a central mechanism of action (Freedman et al, 1989. Direct measurement of muscarinic agents in the central nervous system of mice using ex vivo binding. Eur. J. Pharmacol. 174:253-260). […] Since a premise of the present invention is that carbomyl esters would liberate the conjugated amine in the CNS only after inhibition of acetylcholinesterase, induction of hypothermia provides a useful correlation with the acetylcholinesterase inhibition detected in vitro and in vivo.
Hypothermia was defined as a fall in temperature of >0.5° C.
Hypothermia is a marker of CNS penetration for ACHE inhibitors.
as §1, §2

The target in series [6] is T1, human recombinant acetylcholinesterase (Homo sapiens, UniProt P22303).
T1 construct: purchased Sigma Chemical Co (St. Louis, Mo.) C1682
T1 sequence (P22303 32-614): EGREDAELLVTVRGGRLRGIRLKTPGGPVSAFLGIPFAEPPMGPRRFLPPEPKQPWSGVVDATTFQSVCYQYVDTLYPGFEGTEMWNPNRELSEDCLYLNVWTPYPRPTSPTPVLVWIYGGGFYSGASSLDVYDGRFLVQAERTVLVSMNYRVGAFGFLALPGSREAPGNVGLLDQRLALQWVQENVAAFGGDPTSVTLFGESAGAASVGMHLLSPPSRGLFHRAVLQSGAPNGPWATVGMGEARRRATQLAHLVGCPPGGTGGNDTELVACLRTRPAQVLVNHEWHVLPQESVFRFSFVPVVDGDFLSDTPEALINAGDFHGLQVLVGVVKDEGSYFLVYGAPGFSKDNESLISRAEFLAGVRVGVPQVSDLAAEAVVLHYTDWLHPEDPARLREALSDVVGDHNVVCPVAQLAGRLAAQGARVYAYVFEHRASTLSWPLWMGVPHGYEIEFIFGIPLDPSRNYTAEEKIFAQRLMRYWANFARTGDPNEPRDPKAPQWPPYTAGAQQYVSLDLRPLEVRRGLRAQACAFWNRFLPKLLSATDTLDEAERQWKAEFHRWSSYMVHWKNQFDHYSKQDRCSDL
As to the kind of experiment: biochemical. The settings on record: for pIC50: 30 min preincubation, 25° C., read-out: Inhibition of AChE IC50; for inhibition at 10 µM: read-out: Inhibition of AChE (%) 10 μM. Here is the method:
All reagents employed in this experiment were of analytical grade. Acetylthiocholine iodide and 5,5′-dithiobis-(2-nitro)benzoic acid (DTNB) and human recombinant acetylcholinesterase (C1682) were purchased from Sigma Chemical Co (St. Louis, Mo.).
The enzyme, compound or stigmine and buffer were preincubated for 30 minutes. At the end of the preincubation period, the substrate acetylthiocholine was added. The final assay mixture contained 10 mM Tris-buffer (pH 8), 0.3 mM Acetylthiocholine and 0.33 mM DTNB and 0.08 U/ml enzyme. At least five (5) different concentrations of the compound or stigmine were assayed per IC50 experiment.
Hydrolysis of acetylthiocholine was monitored indirectly by measurement of the formation of the conjugate between thiocholine and DTNB.

Series [7] addresses AChE (Homo sapiens, UniProt P22303). Format: biochemical.
In series [8] the test system is rats trained to discriminate methamphetamine from saline. As to the kind of experiment: Two-lever drug discrimination in methamphetamine trained rats. The settings on record: 0.32-10 mg/kg p.o.
The subject of series [9] is total cholinesterase activity in the brain. As to the kind of experiment: Total cholinesterase activity in brain homogenate after i.p. injection. Format: in vivo, rat. Conditions: brain 3 hours after injection; for Relative ChE Activity: relative to saline treated rats. Here is the method: Animals were decapitated 3 hours after injection and the brains rapidly removed. The brain tissue was diced into small pieces, placed on ice and immediately homogenized with a Polytron PT1200 (Kinematic AG) in 10 ml ice cold Tris with 0.1% Triton-X and protease inhibitors. The protease inhibitors in the extraction buffer were Antipain (10 μM), Aprotinin (5 TIU/mg protein), Bestatin ([…]), Leupeptin (10 μM) and Pepstatin (1 μM). The final dilution of the homogenate in the final assay mixture was 120-fold.
Total cholinesterase activity was determined by a modification of the colorimetric method of Ellmann, et al. (Biochem. Pharmacol., 7:88-95 (1961)), as described above. Hydrolysis of acetylthiocholine was monitored indirectly by measurement of the formation of the conjugate between thiocholine and DTNB. Optical density at 405 nm was recorded during five (5) minutes employing a microplate spectrophotometer (Polarstar, BMG Labtech), and plotted against time. The initial rates were calculated from the slope of the linear portion of the graph.
Cholinesterase activity was normalized for protein content of the homogenate. Relative cholinesterase activity was calculated as the ratio of normalized cholinesterase activity in a rat treated with a control compound or a carbamoyl ester over normalized cholinesterase activity in saline treated rats.

pIC50: −log10 of the molar value. Where two headings read alike, the source gives them in different places.

AChE, sequence (P22303 32-614): as above

As for `CCN(C)C(=O)Oc1cccc([C@H](C)N(C)C)c1` [Compound 1, S-rivastigmine, reference compound], the “Max Tolerated Dose” value in series [1] turned out to be 10. In series [2], the “BuChEI (%) 1 μM” value is 45% and the “BuChEI (%) 10 μM” value is listed as 100%. In addition, in [3], the rebound hypersomnolence entry is given as “rebound hypersomnolence” and the duration of wakefulness result is “increased wakefulness”. In addition, the inhibition (usually the drop in the measured response relative to a control, in per cent) at 10 µM in [4] is 100%. Also, the “Hypothermia MED (mg/kg)” value in series [5] (s.c., rats) was “≦0.1 mg/kg”. In addition, the “Induction of hypothermia MED (mg/kg s.c.)” value (“Induction of hypothermia MED” for short) in series [5] (s.c.) is given as “≦0.1 mg/kg s.c”. The “fall in body temperature” value in [5] is “dose-related-related fall in body temperature”.
With `C[C@H](Cc1ccccc1)N(C)C(=O)Oc1cccc([C@H](C)N(C)C)c1` [Compound 7, S-riva-l-methamphetamine], in series [2] (10 μM), the “BuChEI (%) 10 μM” value worked out at 17%. Besides, in series [6], the pIC50 (usually the IC50 on a negative log10 scale, so that one unit is a factor of ten) is 5.49 and the inhibition at 10 µM came out at 79%. Also, in series [3] (listed as Compound B), the rebound hypersomnolence result is “rebound hypersomnolence was not observed”; the “effect on body temperature” value is on record as “did not cause an increase in body temperature (hyperthermia), but rather caused an opposite reduction in body temperature”; the “locomotor hyperactivity / stimulant activity” value is listed as “did not cause locomotor hyperactivity”; the duration of wakefulness result is reported as “unexpectedly long increase in wakefulness that surpassed that seen with the reference compounds tested”. In series [3] (listed as compound B), the rebound hypersomnolence result was “lack of hypersomnolence”, the “effect on body temperature” value is given as “absence of hypothermia” and the “locomotor hyperactivity / stimulant activity” value is reported as “lack of locomotor stimulant activity”. Besides, the duration of wakefulness entry in [3] (listed as B) was “dose-related increase in wakefulness”. In [7], the “AChEI (%) 1 μM” value came to 32% and the “AChEI (%) 10 μM” value came to 79%. In [4], the inhibition at 10 µM worked out at 17%. In addition, in [8], the “stimulus generalization (selection of methamphetamine lever)” value is given as “did not select the methamphetamine lever”. Further, in [9] (2 mg/kg i.p.), the ChE inhibition is 38% and the “Relative ChE Activity” value amounted to 62%. In addition, the “Induction of hypothermia MED” value in series [5] (s.c.) is on record as “≦1 mg/kg s.c”. Further, in series [5], the “fall in body temperature” value is “dose-related-related fall in body temperature”.
For the molecule `C[C@H](Cc1ccccc1)NC(=O)Oc1cccc([C@H](C)N(C)C)c1` [Compound 9, S-riva-l-amphetamine], in series [2] (1 μM), the “BuChEI (%) 1 μM” value turned out to be 27%. In [2] (10 μM), the “BuChEI (%) 10 μM” value was 90%. For the same molecule, in series [6], the pIC50 was 5.51 and the inhibition at 10 µM was 79%. For the same molecule, in [3], the duration of wakefulness entry is “dose-related increase in wakefulness”. In series [7], the “AChEI (%) 1 μM” value is recorded as 35% and the “AChEI (%) 10 μM” value turned out to be 79%. Moreover, the inhibition at 10 µM in series [4] was determined as 90%. Moreover, in series [9] (8 mg/kg i.p.), the ChE inhibition came out at 41% and the “Relative ChE Activity” value stood at 59%. Moreover, the “Induction of hypothermia MED” value in [5] (s.c.) came out at 10 mg/kg s.c. The “fall in body temperature” value in series [5] is “dose-related-related fall in body temperature”.
In the case of `C[C@@H](Cc1ccccc1)NC(=O)Oc1cccc([C@H](C)N(C)C)c1` [Compound 20, S-riva-d-amphetamine], the “BuChEI (%) 10 μM” value in series [2] (10 μM) came to 20%. Further, in series [6], the pIC50 was 5.51 and the inhibition at 10 µM is 76%. Besides, in series [3], the duration of wakefulness entry is given as “dose-related increase in wakefulness”. Also, in series [7], the “AChEI (%) 1 μM” value came out at 35% and the “AChEI (%) 10 μM” value stood at 76%. In series [4], the inhibition at 10 µM came to 20%. Moreover, the “Induction of hypothermia MED” value in series [5] (s.c.) is listed as “≦1 mg/kg s.c”. Moreover, the “fall in body temperature” value in [5] was “dose-related-related fall in body temperature”.
